Test results reported in US20100284927A1, “USE OF MRI CONTRAST AGENTS FOR EVALUATING THE TREATMENT OF TUMORS” (University of Utah Research Foundation, priority 2007, published 2010).
Several values for one entry are separate records, joined by “and”; a condition that tells them apart may be missing. Equal values may be shown once. Marks after values point to notes of the source that are not given here.

Experiments:
[1] = tested on: HT-29 human colon carcinoma; experiment: DCE-MRI assessment of anti-angiogenic effect of Avastin, K^trans and fPV of tumor rim; type: in vivo, NCr-nu/nu nude mice; settings: for K^trans 36 h after treatment / fpv 36 h after treatment: 36 h after initiating Avastin 200 μg/mouse i.p.; for K^trans 7 days after treatment / fpv 7 days after treatment: 7 days after initiating Avastin 200 μg/mouse i.p. every 2 days; for K^trans pretreatment / fpv pretreatment: before Avastin, GDCC40K 0.05, Omniscan 0.1 mmol-Gd/kg
[2] = tested on: MDA-MB-231 human breast cancer tumors; experiment: Contrast enhanced 2D spin echo MRI, SI enhancement of tumors (section I); type: in vivo, athymic nude mice; settings: 2D SE images; for SI enhancement ratio (SI post/SI pre) of the whole untreated tumor: Gd-(DTPA-BMA) 0.1 mmol-Gd/kg, GDCC-40 0.05 mmol-Gd/kg i.v.; for residual tumor enhancement ratio (SI post/SI pre): residual tumor after treatment, Gd-(DTPA-BMA) 0.1, GDCC-40 0.05 mmol-Gd/kg i.v.
[3] = tested on: MDA-MB-231 human breast cancer tumors; experiment: DCE-MRI with linear compartmental model, PV and FLR, SI time curves (section I); type: in vivo, athymic nude mice; settings: for FLR, tumor center / FLR, tumor rim / FLR, whole tumor: fractional leakage rate; for FLR, tumor center / FLR, tumor rim / FLR, whole tumor / PV, tumor center / PV, tumor rim / PV, whole tumor: GDCC-40 0.05, Gd-DTPA-BMA 0.1 mmol-Gd/kg; for PV, tumor center / PV, tumor rim / PV, whole tumor: plasma volume; for PV values (range over tumor regions, Table 5) / estimated FLR values (range over tumor regions, Table 5): tumor center to tumor rim
[4] = tested on: MDA-MB-231 human breast cancer tumors; experiment: 2D spin echo MRI with various doses of GDCC-40 (section II); type: in vivo, athymic nude mice; settings: 2D SE images
[5] = tested on: MDA-MB-231 human breast cancer tumors; experiment: DCE-MRI with linear compartmental model, PV, FLR and PS (section II); type: in vivo, athymic nude mice
[6] = reference (36); cited from earlier work
[7] = in mice body; cited from earlier work
human VEGF-A = settings: in vivo; cited from earlier work
Sequence of human VEGF-A (P15692 207-311 limits assumed): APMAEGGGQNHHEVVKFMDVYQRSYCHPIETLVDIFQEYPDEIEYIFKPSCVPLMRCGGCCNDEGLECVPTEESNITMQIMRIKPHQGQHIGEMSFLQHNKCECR

[8] = tested on: HT-29 human colon carcinoma; experiment: Effect of Avastin on growth of HT-29 colon cancer; type: in vivo, NCr-nu/nu nude mice; settings: 36 h after Avastin-treatment, 200 μg/mouse i.p.; pre-treatment 508±185 mm^3
Description: The study protocol was approved by the local ethics committee for animal care and use. HT-29 human colon carcinoma cell line was purchased from American Type Culture Collection (ATCC, Manassas, Va.) with ATCC number HTB-38™. HT-29 cell line was cultured using ATCC complete growth medium (5 McCoy's Medium with 10% fetal bovine serum).
Athymic female NCr-nu/nu nude mice at 4 weeks were purchased form National Cancer Institute at Frederick, M D. Concentrated HT-29 cells in complete medium was mixed with Matrigel basement membrane matrix (BD Biosciences, San Jose, Calif.) at 1:1 ratio. 2×10^6 cells in 100 μl mixture were implanted s.c. in the flank of 12 mice weighing about 23 g.
Animals were selected for study when the tumors reached approximately 1 cm in diameter (about 3 weeks after tumor cells inoculation) and were randomly divided into two groups (each group n=6, group1 and group2). One group (group1) underwent DCE-MRI with macromolecular contrast agent-GDCC40K (MW: 40 KDa), and another group (group2) underwent DCE-MRI with small molecular weight contrast agent—Ominiscan (MW: 574 Da). Before treatment, Ominiscan was injected at 0.1 mmol-Gd/kg for […], GDCC40OK (40K Da) was injected at 0.05 mmol-Gd/kg for […]. […]
In addition, tumor size of all animals was determined using a caliper during the study.

Compound | K^trans 36 h after treatment [1] | fpv 36 h after treatment [1] | K^trans 7 days after treatment [1] | fpv 7 days after treatment [1] | K^trans pretreatment [1] | fpv pretreatment [1] | SI enhancement ratio (SI post/SI pre) of the whole untreated tumor [2] | residual tumor enhancement ratio (SI post/SI pre) [2] | time at which SI of muscle reached plateau ([3]; DCE-MRI time course) | time at which SI of tumor rim reached a maximum ([3]; DCE-MRI time course) | FLR, tumor center [3] | FLR, tumor rim [3] | FLR, whole tumor [3] | PV, tumor center [3] | PV, tumor rim [3] | PV, whole tumor [3] | PV values (range over tumor regions, Table 5) [3] | estimated FLR values (range over tumor regions, Table 5) [3] | also measured
CNC(=O)CN(CCN(CCN(CC(=O)[O-])CC(=O)NC)CC(=O)[O-])CC(=O)[O-].[Gd+3] [Gd-DTPA-BMA, gadodiamide, reference compound] | 0.066 ± 0.047 | 0.062 ± 0.039 | 0.069 ± 0.055 | 0.137 ± 0.034 | 0.07 ± 0.013 | 0.102 ± 0.047 | 1.60±0.19 | 1.66±0.10 | about 1.5 min | ~7 min | 9.93 ± 3.19 h⁻¹ | 28.42 ± 4.36 h⁻¹ | 20.86 ± 1.18 h⁻¹ | 0.098 ± 0.019 | 0.190 ± 0.018 | 0.138 ± 0.020 | 0.098 to 0.190 | 14.93 to 28.42 h⁻¹ | time at which tumor rim/muscle SI ratio reached plateau ([3]; DCE-MRI time course): ≤ 2 min
(Gd-DTPA)-cystamine copolymers [GDCC-40] | 0.008 ± 0.004 | 0.008 ± 0.005 | 0.028 ± 0.029 | 0.030 ± 0.022 | 0.014 ± 0.002 | 0.028 ± 0.005 | 1.65±0.21 | 1.51±0.19 | about 1.5 min | about 12 min | 3.24 ± 1.10* 1/hr | 5.21 ± 0.88* 1/hr | 4.57 ± 0.91* 1/hr | 0.058 ± 0.046 | 0.082 ± 0.038 | 0.076 ± 0.032 | 0.058 to 0.082 | 3.24 to 5.21 h⁻¹ | untreated tumor enhancement ([4]; 0.01 mmol-Gd/kg): 0.14±0.03; untreated tumor enhancement ([4]; 0.025 mmol-Gd/kg): 0.26±0.05; untreated tumor enhancement ([4]; 0.05 mmol-Gd/kg): 0.62±0.19; ratio of SI at the tumor rim to SI of the muscle ([3]; at 15 min): more than 3; time after injection to reach contrast (SI of tumor rim to SI of muscle) similar to Gd-DTPA-BMA ([3]; mouse, in vivo): about 4 min; FLR, untreated tumor ([5]; 0.01 mmol-Gd/kg): 6.05 and 6.05 ± 3.58; PS, untreated tumor ([5]; 0.01 mmol-Gd/kg): 0.997 ± 0.613; PV, untreated tumor ([5]; 0.01 mmol-Gd/kg): 0.124 and 0.124 ± 0.045; FLR, untreated tumor ([5]; 0.025 mmol-Gd/kg): 5.06 and 5.06 ± 1.84; PS, untreated tumor ([5]; 0.025 mmol-Gd/kg): 0.611 ± 0.351; PV, untreated tumor ([5]; 0.025 mmol-Gd/kg): 0.123 and 0.123 ± 0.059; FLR, untreated tumor ([5]; 0.05 mmol-Gd/kg): 3.95 ± 0.81; PS, untreated tumor ([5]; 0.05 mmol-Gd/kg): 0.517 ± 0.216; PV, untreated tumor ([5]; 0.05 mmol-Gd/kg): 0.103 ± 0.043
Albumin-Gd-DTPA |  |  |  |  |  |  |  |  |  |  |  |  |  |  |  |  |  |  | FLR values estimated using Albumin-Gd-DTPA [6]: 1.27 to 8.10 h⁻¹; PV values estimated using Albumin-Gd-DTPA [6]: 0.023 to 0.065
Bevacizumab [Avastin] |  |  |  |  |  |  |  |  |  |  |  |  |  |  |  |  |  |  | terminal half-life [7]: 1-2 weeks; dose enough to completely inhibit human VEGF-A (human VEGF-A): 50-100 μg/mouse; tumor size [8]: 510±171 mm^3
